Source: US9113629B2, “4-amino-6-(4-substituted-phenyl)-picolinates and 6-amino-2-(4-substituted-phenyl)-pyrimidine-4-carboxylates and their use as herbicides” (DOW AGROSCIENCES LLC, priority 2013, dated 2015)
Like-named read-outs stand apart in the source and are kept apart here.

What was measured:
[1] = tested on: Key Broadleaf Weed and Crop Species; experiment: Post-emergent Test II herbicidal activity (Table 5); assay type: in vivo; conditions: post-emergence, 336 h, post-emergent, 14 days after application; for pest or weed control at 70 g/ha: 70 g ai/ha; for pest or weed control at 140 g/ha: 140 g ai/ha
In short: (§1)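 Plants grown in Metro-Mix 360 (pH 6.0–6.8) in a greenhouse (~15 h photoperiod, 23–29 °C day) to first or second true leaf stage, then sprayed with compound in acetone/DMSO/aqueous crop-oil-surfactant carrier at 187 L/ha by track sprayer. Injury visually scored 0–100% versus untreated plants after 14 d.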

[2] = tested on: Key Grass and Sedge Weeds as well as Grass Crops; experiment: Post-emergent Test II herbicidal activity (Table 6); assay type: in vivo; conditions: post-emergence, 336 h; for pest or weed control at 70 g/ha: application rate 70 g ai/ha; for pest or weed control at 140 g/ha: application rate 140 g ai/ha
In short: as §1

[3] = ABUTH: velvetleaf (Abutilon theophrasti), read-out: Visual Growth Reduction (%) 14 Days After Application ABUTH
[4] = AMARE: redroot pigweed (Amaranthus retroflexus), read-out: Visual Growth Reduction (%) 14 Days After Application AMARE
[5] = BRSNN: oilseed-rape, canola (Brassica napus), read-out: Visual Growth Reduction (%) 14 Days After Application BRSNN
[6] = CHEAL: lambsquarters (Chenopodium album), read-out: Visual Growth Reduction (%) 14 Days After Application CHEAL
[7] = EPHHL: wild poinsettia (Euphorbia heterophylla), read-out: Visual Growth Reduction (%) 14 Days After Application EPHHL
[8] = HELAN: sunflower (Helianthus annuus), read-out: Visual Growth Reduction (%) 14 Days After Application HELAN
[9] = VIOTR: wild pansy (Viola tricolor), read-out: Visual Growth Reduction (%) 14 Days After Application VIOTR
[10] = CYPES: yellow nutsedge (Cyperus esculentus), read-out: Visual Growth Reduction (%) 14 Days After Application, CYPES
[11] = DIGSA: crabgrass (Digitaria sanguinalis), read-out: Visual Growth Reduction (%) 14 Days After Application, DIGSA
[12] = ECHCG: barnyardgrass (Echinochloa crus-galli), read-out: Visual Growth Reduction (%) 14 Days After Application, ECHCG
[13] = ORYSA: rice (Oryza sativa), read-out: Visual Growth Reduction (%) 14 Days After Application, ORYSA
[14] = SETFA: giant foxtail (Setaria faberi), read-out: Visual Growth Reduction (%) 14 Days After Application, SETFA
[15] = SORVU: grain sorghum (Sorghum vulgare), read-out: Visual Growth Reduction (%) 14 Days After Application, SORVU
[16] = TRZSS (wheat, Triticum aestivum), read-out: Visual Growth Reduction (%) 14 Days After Application, TRZSS
[17] = ZEAMX: maize, corn (Zea mays), read-out: Visual Growth Reduction (%) 14 Days After Application, ZEAMX

COC(=O)c1nc(-c2cc(F)c(C(F)(F)F)cc2F)cc(N)c1Cl [Compound 70, methyl 4-amino-3-chloro-6-(2,5-difluoro-4-(trifluoromethyl)phenyl)picolinate]
pest or weed control at 70 g/ha [1, 3]: 95 to 100%
pest or weed control at 140 g/ha [1, 3]: 95 to 100%
pest or weed control at 70 g/ha [1, 4]: 95 to 100%
pest or weed control at 140 g/ha [1, 4]: 95 to 100%
pest or weed control at 70 g/ha [1, 5]: 75 to 84%
pest or weed control at 140 g/ha [1, 5]: 85 to 94%
pest or weed control at 70 g/ha [1, 6]: 95 to 100%
pest or weed control at 140 g/ha [1, 6]: 95 to 100%
pest or weed control at 70 g/ha [1, 7]: 95 to 100%
pest or weed control at 140 g/ha [1, 7]: 95 to 100%
pest or weed control at 70 g/ha [1, 8]: 85 to 94%
pest or weed control at 140 g/ha [1, 8]: 95 to 100%
pest or weed control at 70 g/ha [1, 9]: 60 to 74%
pest or weed control at 140 g/ha [1, 9]: 75 to 84%
pest or weed control at 70 g/ha [2, 10]: 95 to 100%
pest or weed control at 140 g/ha [2, 10]: 95 to 100%
pest or weed control at 70 g/ha [2, 11]: 85 to 94%
pest or weed control at 140 g/ha [2, 11]: 95 to 100%
pest or weed control at 70 g/ha [2, 12]: 85 to 94%
pest or weed control at 140 g/ha [2, 12]: 95 to 100%
pest or weed control at 70 g/ha [2, 13]: 0 to 29%
pest or weed control at 140 g/ha [2, 13]: 0 to 29%
pest or weed control at 70 g/ha [2, 14]: 30 to 44%
pest or weed control at 140 g/ha [2, 14]: 60 to 74%
pest or weed control at 70 g/ha [2, 15]: 85 to 94%
pest or weed control at 140 g/ha [2, 15]: 95 to 100%
pest or weed control at 70 g/ha [2, 16]: 75 to 84%
pest or weed control at 140 g/ha [2, 16]: 85 to 94%
pest or weed control at 70 g/ha [2, 17]: 95 to 100%
pest or weed control at 140 g/ha [2, 17]: 95 to 100%
